Measurements from patent US7297481B2, “Detection of DNA damage” (ESA Biosciences, Inc., priority 2000, dated 2007).
Each block holds one compound with its values, some of them ahead of it.

Experiments:
[1] = tested on: C. Elegans; test: 8OH2′dG production (DNA damage rate) in C. Elegans culture; format: in vivo
From the text: 2. Relevant to the use of DNA damage rate measurements to cancer diagnosis I have observed that in C. Elegans culture there is a burst of 8OH2′dG production during the stage of rapid replication of the gonadal cells. In similar experiments I observed that a toxin (3 nitro propionic acid, 3NP) increased the rate of DNA damage during replication.
4. […] In rapid cell replication in C. Elegans, in 3NP insulted C.

[2] = Dialysis studies of 8OH2′dG in extracellular matrix, probes in brain and muscle; format: in vivo; details: extracellular matrix vs free levels inside cellular material, brain and muscle of rat and mouse
From the text: (§1) 1. Dialysis studies of 8OH2′dG in extracellular matrix with probes placed in brain and muscle of rat and mouse to measure the rate of production and excretion compared with the free levels inside the cellular material confirm that excretion from the cells is rapid. Similarly, comparison of CSF, Plasma and urinary levels of ca 1:10:2000 in ca 100 ALS and control subjects confirm that the rate of clearance from the body is high.

[3] = Comparison of CSF, plasma, urine, saliva and sweat levels of 8OH2′dG; format: in vivo, human
From the text: as §1

[4] = Effect of simple antioxidants on levels of 8OH2′dG; format: in vivo
[5] = Urine 8OH2′dG levels in individuals exposed to chemicals; format: in vivo, human; details: individuals exposed to the substance

Compound: O=C(O)CC[N+](=O)[O-] [3NP, 3 nitro propionic acid]
rate of damage after the toxin was removed ([1]; after exposure): still maintained at a higher level
rate of DNA damage during replication ([1]; toxin exposure): increased

excretion from the cells [2]: rapid
rate of clearance from the body ([3]; CSF, plasma and urinary levels ca 1:10:2000 in ca 100 ALS and control subjects): high
Compound: Nc1nc2c(nc(O)n2[C@H]2C[C@H](O)[C@@H](CO)O2)c(=O)[nH]1 [8OH2′dG, 8 hydroxy 2′ deoxyguanosine]
mode of removal ([3]; saliva or sweat vs. urine levels, plasma of kidney dialysis patients): urinary excretion is the primary mode of removal

Compound: O=C1O[C@H]([C@@H](O)CO)C(O)=C1O [Ascorbate]
effect on the levels of 8OH2′dG [4]: no effect

Compound: Nc1ccccc1 [aniline]
Urine levels of 8OH2′dG [5]: significantly increased

Compound: [As] [arsenic]
Urine levels of 8OH2′dG [5]: significantly increased

Compound: Cc1ccccc1N [o-toluidine]
Urine levels of 8OH2′dG [5]: significantly increased

Compound: Tocopherol
effect on the levels of 8OH2′dG [4]: no effect
